This note sets out measurements from patent US20250195521A1 (Revolution Medicines, Inc., priority 2020, published 2025).

The target in one test is NRAS Q61K (Homo sapiens (Human), UniProt P01111+P62937, Q61K). As to the kind of experiment: Ras-Raf disruption/FRET/MOA assay (BRAF RBD, Cyclophilin A). Type of test: biochemical. Summed up: (§1)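 Ras-GMPPNP (12.5 nM), BRAF RBD (50 nM) and 25 μM Cyclophilin A were incubated with compound for 3 h at 25° C, then detected 1.5 h with anti-His Eu and anti-GST APC; IC50 values follow from the reduced TR-FRET ratio.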
Sequence of NRAS Q61K (P01111 whole entry Q61K): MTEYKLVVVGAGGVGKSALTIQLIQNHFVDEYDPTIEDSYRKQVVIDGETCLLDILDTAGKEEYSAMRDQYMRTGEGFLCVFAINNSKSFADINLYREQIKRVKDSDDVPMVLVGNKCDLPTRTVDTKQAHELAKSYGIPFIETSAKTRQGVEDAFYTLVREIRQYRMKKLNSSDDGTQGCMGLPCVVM
Sequence of NRAS Q61K (P62937 whole entry): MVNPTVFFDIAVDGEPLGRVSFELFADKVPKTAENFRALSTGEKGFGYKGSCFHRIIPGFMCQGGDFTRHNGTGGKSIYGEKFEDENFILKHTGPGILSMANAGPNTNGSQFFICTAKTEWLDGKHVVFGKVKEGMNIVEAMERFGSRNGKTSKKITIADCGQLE

For another test, the target named is KRAS Q61H (Homo sapiens (Human), UniProt P01116+P62937, Q61H). Described as above. Format: biochemical. Summed up:
as §1

In a further test the target is KRAS G12V (Homo sapiens (Human), UniProt P01116+P62937, G12V). The test is described as above. Conditions: read-out: KRAS G12V FRET IC50. Format: biochemical. The gist of the method: as §1
Sequence of KRAS G12V (P01116 other isoform, or with tags, fused parts or gaps G12V): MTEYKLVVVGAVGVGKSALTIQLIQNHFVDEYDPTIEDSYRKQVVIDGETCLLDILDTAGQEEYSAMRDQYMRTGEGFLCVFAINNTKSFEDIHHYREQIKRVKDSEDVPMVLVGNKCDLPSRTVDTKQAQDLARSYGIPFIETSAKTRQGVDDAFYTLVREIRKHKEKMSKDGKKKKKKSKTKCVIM
Sequence of KRAS G12V (P62937 whole entry): as the sequence (P62937 whole entry) above
A further test concerns the target KRAS G12S (Homo sapiens (Human), UniProt P01116+P62937, G12S). The test is described as above. Type of test: biochemical. Conditions: read-out: KRAS G12S FRET IC50. Summed up: as §1
The target in another test is KRAS WT (Homo sapiens (Human), UniProt P01116+P62937). The description is as above. Type of test: biochemical. The conditions noted are these: read-out: KRAS WT FRET data IC50. Summed up: as §1
Sequence of KRAS WT (P01116 other isoform, or with tags, fused parts or gaps): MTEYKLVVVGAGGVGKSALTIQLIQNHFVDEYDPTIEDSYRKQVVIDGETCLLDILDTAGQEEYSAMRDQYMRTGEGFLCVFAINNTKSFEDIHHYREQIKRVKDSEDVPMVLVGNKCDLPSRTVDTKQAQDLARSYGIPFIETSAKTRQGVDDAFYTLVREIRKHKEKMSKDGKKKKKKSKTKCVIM
Sequence of KRAS WT (P62937 whole entry): as the sequence (P62937 whole entry) above
Another test addresses NRAS G12C (Homo sapiens (Human), UniProt P01111+P62937, G12C). The description is as above. Format: biochemical. The conditions noted are these: read-out: NRAS G12C FRET data IC50. Summed up: as §1
The target in another test is NRAS WT (Homo sapiens (Human), UniProt P01111+P62937). Described as above. Format: biochemical. Summed up:
as §1

The target in the next test is KRAS G13D (Homo sapiens (Human), UniProt P01116+P62937, G13D). Described as above. Conditions: read-out: KRAS G13D FRET data IC50. Format: biochemical. The gist of the method: as §1
Sequence of KRAS G13D (P01116 other isoform, or with tags, fused parts or gaps G13D): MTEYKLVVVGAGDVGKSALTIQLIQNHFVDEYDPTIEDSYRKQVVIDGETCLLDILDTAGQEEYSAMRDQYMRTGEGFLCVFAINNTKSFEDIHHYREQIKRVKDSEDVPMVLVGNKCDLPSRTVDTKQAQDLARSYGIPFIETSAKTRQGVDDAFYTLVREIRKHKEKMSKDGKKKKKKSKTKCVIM
Sequence of KRAS G13D (P62937 whole entry): as the sequence (P62937 whole entry) above
A further test addresses KRAS G13C (Homo sapiens (Human), UniProt P01116+P62937, G13C). The description is as above. Type of test: biochemical. Conditions: read-out: KRAS G13C FRET IC50. The gist of the method: as §1
For a further test, the target named is KRAS G12D (Homo sapiens (Human), UniProt P01116+P62937, G12D). The test is described as above. Format: biochemical. Conditions: read-out: KRAS G12D FRET IC50. Summed up:
as §1

In a further test the target is NRAS Q61R (Homo sapiens (Human), UniProt P01111+P62937, Q61R). The test is described as above. Format: biochemical. The gist of the method:
as §1

The next test has as its target KRAS G12C (Homo sapiens (Human), UniProt P01116+P62937, G12C). The test is described as above. Format: biochemical. The conditions noted are these: read-out: KRAS G12C FRET IC50. Summed up:
as §1

In test [1] the target is KRAS WT binding to BRAF RBD (Homo sapiens (Human), UniProt P01116+P62937). As to the kind of experiment: Ras-Raf disruption/FRET/MOA assay, KRAS WT. Format: biochemical. The gist of the method:
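Compounds (top 30 μM, 3-fold, 10 points) promote Cyclophilin A (25 μM) ternary complex with His6-Ras-GMPPNP (12.5 nM), disrupting GST-BRAF RBD (50 nM) binding; 3 h, 25°C, 25 mM HEPES pH 7.3, 100 mM NaCl, 5 mM MgCl2. Detection reagents (Eu anti-His 10 nM, APC anti-GST 50 nM) added for 1.5 h; IC50 reported.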

A further test has as its system NCI-H358 (K-Ras G12C). As to the kind of experiment: CellTiter-Glo cell viability assay, NCI-H358. Type of test: cell-based, human. Conditions: Homo sapiens, NCI-H358, 120 h, 5-day treatment; read-out: H358 Cell Viability assay data (K-Ras G12C, IC50). The gist of the method:
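Luminescent CellTiter-Glo read-out on day 5 after compound exposure; signal expressed as percent of mean DMSO control; four-parameter logistic fit gives the value.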

Sequence of KRAS G12C (P01116-2 other isoform, or with tags, fused parts or gaps G12C): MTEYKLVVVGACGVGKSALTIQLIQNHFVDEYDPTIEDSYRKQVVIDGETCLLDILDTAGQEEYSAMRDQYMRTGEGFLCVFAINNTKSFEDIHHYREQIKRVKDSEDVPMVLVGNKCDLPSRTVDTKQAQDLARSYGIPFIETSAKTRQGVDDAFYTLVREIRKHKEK
Sequence of KRAS G12C (P62937 whole entry): as the sequence (P62937 whole entry) above
Sequence of KRAS WT binding to BRAF RBD (P01116 other isoform, or with tags, fused parts or gaps): as the sequence (P01116 other isoform, or with tags, fused parts or gaps) above
Sequence of KRAS WT binding to BRAF RBD (P62937 whole entry): as the sequence (P62937 whole entry) above
Sequence of NRAS Q61R (P01111 whole entry Q61R): as the sequence (P01111 whole entry Q61K) above, with K61R counted along it
Sequence of NRAS Q61R (P62937 whole entry): as the sequence (P62937 whole entry) above
Sequence of KRAS G13C (P01116 other isoform, or with tags, fused parts or gaps G13C): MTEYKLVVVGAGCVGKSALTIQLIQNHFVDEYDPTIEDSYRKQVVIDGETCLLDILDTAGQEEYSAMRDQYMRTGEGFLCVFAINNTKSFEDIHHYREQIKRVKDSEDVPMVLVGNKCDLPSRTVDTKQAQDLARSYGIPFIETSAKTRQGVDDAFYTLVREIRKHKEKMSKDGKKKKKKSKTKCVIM
Sequence of KRAS G13C (P62937 whole entry): as the sequence (P62937 whole entry) above
Sequence of KRAS G12S (P01116 other isoform, or with tags, fused parts or gaps G12S): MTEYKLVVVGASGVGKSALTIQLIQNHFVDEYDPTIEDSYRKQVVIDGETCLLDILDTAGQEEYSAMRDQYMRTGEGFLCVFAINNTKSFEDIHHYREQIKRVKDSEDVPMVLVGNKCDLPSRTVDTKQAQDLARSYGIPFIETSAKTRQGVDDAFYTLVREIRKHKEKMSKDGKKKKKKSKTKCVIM
Sequence of KRAS G12S (P62937 whole entry): as the sequence (P62937 whole entry) above
Sequence of NRAS WT (P01111 whole entry): as the sequence (P01111 whole entry Q61K) above, with K61Q counted along it
Sequence of NRAS WT (P62937 whole entry): as the sequence (P62937 whole entry) above
Sequence of KRAS G12D (P01116 other isoform, or with tags, fused parts or gaps G12D): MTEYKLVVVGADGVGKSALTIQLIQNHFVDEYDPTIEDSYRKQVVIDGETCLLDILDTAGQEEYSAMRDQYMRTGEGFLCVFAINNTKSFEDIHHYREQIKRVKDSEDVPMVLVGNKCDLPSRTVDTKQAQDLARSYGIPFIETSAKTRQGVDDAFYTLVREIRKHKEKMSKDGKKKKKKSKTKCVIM
Sequence of KRAS G12D (P62937 whole entry): as the sequence (P62937 whole entry) above
Sequence of KRAS Q61H (P01116 other isoform, or with tags, fused parts or gaps Q61H): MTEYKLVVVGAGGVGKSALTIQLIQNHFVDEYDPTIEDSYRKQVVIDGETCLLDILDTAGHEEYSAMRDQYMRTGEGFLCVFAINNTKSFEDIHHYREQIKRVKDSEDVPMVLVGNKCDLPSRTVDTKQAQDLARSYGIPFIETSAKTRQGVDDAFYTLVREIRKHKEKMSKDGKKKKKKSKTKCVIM
Sequence of KRAS Q61H (P62937 whole entry): as the sequence (P62937 whole entry) above
Sequence of NRAS G12C (P01111 whole entry G12C): as the sequence (P01111 whole entry Q61K) above, with G12C, K61Q counted along it
Sequence of NRAS G12C (P62937 whole entry): as the sequence (P62937 whole entry) above

As for `CCn1c(-c2cccnc2[C@H](C)OC)c2c3cc(ccc31)-c1csc(n1)C[C@H](NC(=O)[C@H](C(C)C)N(C)C(=O)N1CCO[C@@]3(CCN(C)C3)C1)C(=O)N1CCC[C@H](N1)C(=O)OCC(C)(C)C2` [Compound A436], the IC50 (as a rule, the concentration that inhibits the measured activity by half) at NRAS Q61K was 100 to 1000 nM; against KRAS Q61H, 100 to 1000 nM; on KRAS G12V, 100 to 1000 nM; on KRAS G12S, 100 to 1000 nM; on KRAS WT it was 100 to 1000 nM; at NRAS G12C, 10 to 100 nM. The 50% inhibitory concentration (IC50) at NRAS WT, at KRAS G13D, at KRAS G13C, on KRAS G12D, on NRAS Q61R and on KRAS G12C was 100 to 1000 nM each time. Further, the IC50 (in [1]; in the test on NCI-H358 (K-Ras G12C)) was 10 to 100 nM each time.
Take `CCn1c(-c2cccnc2[C@H](C)OC)c2c3cc(ccc31)-c1csc(n1)C[C@H](NC(=O)[C@H](C(C)C)N(C)C(=O)N1CC[C@]3(CCNC3=O)C1)C(=O)N1CCC[C@H](N1)C(=O)OCC(C)(C)C2` [Compound A479]: the 50% inhibitory concentration (IC50) was 100 to 1000 nM on NRAS Q61K; 100 to 1000 nM at KRAS Q61H; 1000 to 10000 nM on KRAS G12V; 1000 to 10000 nM on KRAS G12S; 1000 to 10000 nM at KRAS WT; 100 to 1000 nM at NRAS G12C. In addition, the concentration for half-maximal inhibition (IC50) at NRAS WT lay in the range of 100 to 1000 nM; at KRAS G13D, 1000 to 10000 nM; at KRAS G13C, 1000 to 10000 nM; at KRAS G12D it was 1000 to 10000 nM; against NRAS Q61R it was 1000 to 10000 nM; at KRAS G12C, 100 to 1000 nM. The half-inhibitory concentration (IC50) is 10 to 100 nM in test [1] and below 10 nM in the test with NCI-H358 (K-Ras G12C).
As for `CCn1c(-c2cccnc2[C@H](C)OC)c2c3cc(ccc31)-c1csc(n1)C[C@H](NC(=O)[C@H](C(C)C)N(C)C(=O)N(C)C1(C)COC1)C(=O)N1CCC[C@H](N1)C(=O)OCC(C)(C)C2` [Compound A527], the IC50 fell in the range of 100 to 1000 nM against NRAS Q61K; 100 to 1000 nM against KRAS Q61H; 1000 to 10000 nM on KRAS G12V; 100 to 1000 nM on KRAS G12S; 100 to 1000 nM on KRAS WT; 100 to 1000 nM at NRAS G12C. For the same molecule, the IC50 at NRAS WT lay within 100 to 1000 nM; at KRAS G13D it was 1000 to 10000 nM; on KRAS G13C it was 1000 to 10000 nM; at KRAS G12D it was 1000 to 10000 nM; against NRAS Q61R, 100 to 1000 nM; at KRAS G12C it was 100 to 1000 nM. Besides, the half-inhibitory concentration (IC50) in [1] is 10 to 100 nM; in the test on NCI-H358 (K-Ras G12C) it was below 10 nM.
As for `CCn1c(-c2cccnc2[C@H](C)OC)c2c3cc(ccc31)-c1csc(n1)C[C@H](NC(=O)[C@H](C(C)C)N(C)C(=O)N1CC3(CCN(C)C3)C1)C(=O)N1CCC[C@H](N1)C(=O)OCC(C)(C)C2` [Compound A602], the half-maximal inhibitory concentration (IC50) against NRAS Q61K, against KRAS Q61H, on KRAS G12V, on KRAS G12S, on KRAS WT and on NRAS G12C was 100 to 1000 nM each time. In addition, the half-inhibitory concentration (IC50) fell in the range of 100 to 1000 nM on NRAS WT; 100 to 1000 nM at KRAS G13D; 100 to 1000 nM at KRAS G13C; 1000 to 10000 nM on KRAS G12D; 100 to 1000 nM on NRAS Q61R; 100 to 1000 nM on KRAS G12C. Further, the results for the half-maximal inhibitory concentration (IC50) (in test [1]; in the test with NCI-H358 (K-Ras G12C)) were 10 to 100 nM and below 10 nM, respectively.
